{
  "source": "paper PMC6123649",
  "about": "“Structural basis for specific inhibition of the highly sensitive ShHTL7 receptor” (EMBO Reports, 2018)",
  "key": {"AtD14 [1]": {"biological_target": "T1, AtD14 (Arabidopsis thaliana, UniProt Q9SQR3)", "T1 construct": "made in house; host or cells: E. coli BL21 (DE3)", "T1 sequence (Q9SQR3 1-267)": "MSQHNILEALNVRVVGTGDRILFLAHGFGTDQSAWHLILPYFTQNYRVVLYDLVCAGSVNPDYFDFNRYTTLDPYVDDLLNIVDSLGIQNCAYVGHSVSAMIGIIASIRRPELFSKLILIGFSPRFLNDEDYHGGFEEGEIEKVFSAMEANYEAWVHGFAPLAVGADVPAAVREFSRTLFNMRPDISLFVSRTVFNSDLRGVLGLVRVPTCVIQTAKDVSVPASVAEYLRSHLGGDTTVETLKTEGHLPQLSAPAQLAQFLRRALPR", "experiment": "Intrinsic Triton fluorescence binding assay", "details": "up to 5 μM of AtD14", "protocol": "(§1) Triton X‐100 has an excitation and emission wavelength of 275 and 302 nm, respectively. ShHTL7, ShHTL7‐L143Y, AtD14, and OsD14 were incubated in 50 mM Tris–HCl pH 7.5, 150 mM NaCl, with or without 0.005% Tween‐20, at concentrations ranging from 10 μM to 1 nM (obtained using serial dilutions) with 154 nM of Triton X‐100 for 1–2 h, and fluorescence values were then measured by SpectraMax i3 (Molecular Devices) at excitation and detection wavelengths of 275 and 302 nm, respectively. […] Data were normalized to the background fluorescence from the protein to obtain the change in Triton X‐100 fluorescence intensity. To determine the K d, the changes in Triton X‐100 fluorescence intensity were plotted against the concentration of the protein using the single binding site model implemented in GraphPad (Prism 6)."}, "OsD14 [2]": {"biological_target": "T2, OsD14 (Oryza sativa subsp. japonica, UniProt Q10QA5)", "T2 construct": "made in house; host or cells: E. coli BL21 (DE3)", "T2 sequence (Q10QA5 1-318)": "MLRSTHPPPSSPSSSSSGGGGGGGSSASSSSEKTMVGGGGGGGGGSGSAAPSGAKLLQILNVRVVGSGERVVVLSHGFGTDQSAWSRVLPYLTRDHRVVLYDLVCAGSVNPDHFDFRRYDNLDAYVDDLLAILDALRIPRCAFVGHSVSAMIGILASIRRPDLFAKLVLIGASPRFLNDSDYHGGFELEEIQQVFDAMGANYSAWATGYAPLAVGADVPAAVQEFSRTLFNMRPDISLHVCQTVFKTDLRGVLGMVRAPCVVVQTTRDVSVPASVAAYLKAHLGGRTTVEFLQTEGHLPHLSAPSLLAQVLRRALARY", "experiment": "Intrinsic Triton fluorescence binding assay", "details": "up to 5 μM of OsD14", "protocol": "as §1"}, "ShHTL7 [3]": {"biological_target": "T3, ShHTL7 (Striga hermonthica, UniProt A0A0M3PNA2)", "T3 sequence (A0A0M3PNA2 1-271)": "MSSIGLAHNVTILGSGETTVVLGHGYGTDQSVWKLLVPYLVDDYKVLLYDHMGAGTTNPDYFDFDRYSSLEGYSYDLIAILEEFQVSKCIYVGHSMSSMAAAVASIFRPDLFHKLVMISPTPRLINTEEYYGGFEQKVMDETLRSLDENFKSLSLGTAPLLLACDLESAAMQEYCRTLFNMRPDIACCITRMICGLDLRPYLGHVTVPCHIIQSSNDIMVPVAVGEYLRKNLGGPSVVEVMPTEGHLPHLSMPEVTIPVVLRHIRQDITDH", "experiment": "Intrinsic Triton fluorescence binding assay", "protocol": "as §1"}, "ShHTL7 L143Y mutant": {"test_system": "ShHTL7 L143Y mutant", "experiment": "Intrinsic Triton fluorescence binding assay", "design": "species or system Striga hermonthica", "protocol": "as §1"}, "ShHTL7 [4]": {"biological_target": "T3, ShHTL7", "experiment": "Microscale thermophoresis (MST)", "assay_type": "binding", "details": "2.5 h pre‐incubation; 0.005% Tween‐20; read-out: dissociation constant (Kd), MST", "protocol": "ShHTL7 was N‐terminally labeled with RED dye (NT‐647) following the protocol from manufacturer (NanoTemper, Germany). Free dye was removed by passing through the Sephadex G‐25 column. Serial dilutions of unlabeled Triton X‐100, GR24, and PAA ranging from 25 μM to sub‐nanomolar range were mixed with 20 nM of NT‐647‐labeled ShHTL7 in buffer (50 mM Tris–HCl, 150 mM NaCl, 0.005% Tween‐20) and incubated for 2.5 h in the studies for Triton X‐100 and PAA except with GR24, and it was recorded after 10‐min incubation. About 10 μl of sample was loaded into premium monolith NT capillaries, and assays were carried out in a NanoTemper Monolith NT.015T. The red fluorescence was excited by a light‐emitting diode, and its emission was recorded on the focused part of capillaries. Using laser diode, a microscopic temperature gradient was created at the same location and the fluorescence depletion was measured. K d values were determined by plotting the concentrations of unlabeled ligands against the changes in fluorescent thermophoresis signal, and the data were analyzed using the NanoTemper analysis software."}, "AtD14 [5]": {"biological_target": "T1, AtD14", "experiment": "DSLS, aggregation temperature", "assay_type": "binding", "details": "up to 100 μM of Triton", "protocol": "(§2) The specific aggregation temperature, T agg, at which ShHTL7, ShHTL7L143Y, AtD14, and OsD14 aggregated in the presence or absence of Triton X‐100, GR24, and PAA was measured using DSLS on the Stargazer system (Harbinger Biotechnology and Engineering Corporation, Markham, Canada). Protein samples at a concentration of 10 μM were overlaid with mineral oil in a clear bottom 384‐well black plate (Corning) and heated from 20 to 95°C at 1°C/min; light scattering was detected by a CCD camera every 0.5°C in the presence or absence of varying concentrations of Triton X‐100, GR24, and PAA yielding the difference in aggregation temperature at a particular concentration from apoproteins (ΔT agg). Data were normalized, and ΔT agg plotted against the Triton X‐100, GR24, and PAA concentration. Resulting data were plotted to determine the change in T agg of all proteins when bound to Triton X‐100, GR24, and PAA using GraphPad (Prism 6)."}, "OsD14 [6]": {"biological_target": "T2, OsD14", "experiment": "DSLS, aggregation temperature", "assay_type": "binding", "details": "up to 100 μM of Triton", "protocol": "as §2"}, "ShHTL7 [7]": {"biological_target": "T3, ShHTL7", "experiment": "Drug affinity response target stability (DARTS) assay", "assay_type": "binding", "details": "100 μM compound; proteinase K 10 μg/ml", "protocol": "ShHTL7 and mutants were diluted to a concentration of 30 μM in 50 mM Tris–HCl pH 7.5, 150 mM NaCl, 0.005% Tween‐20, incubated with GR24 at final concentration of 100 μM for 5 min, and separately with 100 μM Triton X‐100 for 2 h. One sample was kept aside for use as an undigested control. Proteinase K (Hampton Research) was then added to ShHTL7 protein to a final protease concentration of 10 μg/ml. Reactions were incubated at room temperature for 5 min and then SDS–PAGE loading buffer was added to stop the reaction, and the samples were immediately boiled for 3 min. Equal amounts of each sample, corresponding to 10 μg of protein, were run on a 4–20% gradient polyacrylamide gel (Bio‐Rad) and analyzed by Coomassie Blue staining 32."}},
  "data": [
    {"substance": "Triton X-100", "values": [
      {"measurement": "change of Triton fluorescence in presence of protein", "setting": "AtD14 [1]", "result": "did not change"},
      {"measurement": "change of Triton fluorescence in presence of protein", "setting": "OsD14 [2]", "result": "did not change"},
      {"measurement": "Kd for the Triton-ShHTL7 association", "setting": "ShHTL7 [3]; across methods and buffers (authors' reply in peer review file)", "result": "~ 250 nM"},
      {"measurement": "Kd", "setting": "ShHTL7 [3]; in the absence of Tween‐20, read-out: final Kd, intrinsic Triton fluorescence", "result": "233 ± 30", "unit": "nM"},
      {"measurement": "Kd", "setting": "ShHTL7 [3]; wild-type ShHTL7, buffer with 0.005% Tween‐20, converged after 2.5 h of incubation, read-out: dissociation constant (Kd), intrinsic Triton fluorescence", "result": "284 ± 22", "unit": "nM"},
      {"measurement": "binding to ShHTL7 L143Y mutant in vitro", "setting": "ShHTL7 L143Y mutant", "result": "failed to bind"},
      {"measurement": "Kd", "setting": "ShHTL7 [4]", "result": "440 ± 50", "unit": "nM"},
      {"measurement": "effect on T agg", "setting": "AtD14 [5]", "result": "failed to affect"},
      {"measurement": "effect on T agg", "setting": "OsD14 [6]", "result": "failed to affect"},
      {"measurement": "protection of ShHTL7 from digestion by proteinase K", "setting": "ShHTL7 [7]", "result": "efficiently protected"}
    ]}
  ]
}
